Where “and” joins values, the source holds several entries; their conditions need not be identical. Equal values may be shown once.

The subject of experiment [1] is colchicine binding site of tubulin. Description: Colchicine site competitive binding assay ([3H]colchicine). The settings on record: tubulin and colchicine at 1 and 5 µM. Here is the method: The affinity of Benzotriazole compounds to colchicine binding site was determined using a Colchicine Site Competitive Assay kit CytoDYNAMIX Screen15 (Cytoskeleton, Inc., Denver, CO, USA) using the standard protocol of the manufacturer to determine Ki values (μM). Biotin-labelled tubulin ([…]) and the test compounds (positive control colchicine, negative control vinblastine, G-1, fluorescent G-1, or 2-ME) in a 96-well plate (final volume: 100 μL). After incubating for 2 h at 37 °C with gentle shaking, streptavidin-labelled yttrium SPA beads (80 μg in 20 μL reaction buffer, PerkinElmer, Waltham, MA) were added to each well and incubated for 30 min at 4 °C. The plates were then read on a scintillation counter (Packard Instrument, Topcount Microplate Reader) and the percentage of inhibition was calculated.

Experiment [2] has as its system HUVEC human umbilical vein endothelial cell line. Kind of experiment: MTT viability assay, normal HUVEC cells. The experiment is classed as cell-based. The settings on record: 72 h, mean ± SD of three independent experiments. Here is the method: (§1) All the human tumour cell lines MCF-7, HL-60, HCT-116, and HUVEC were cultured in Dulbecco’s Modified Eagle’s Medium (DMEM) with 10% fetal bovine serum, 2 mM L-glutamine and 100 µg/mL penicillin/streptomycin. Cells were maintained at 37 °C in 5% CO2 in a humidified incubator. All cells were sub-cultured three times/week by trypsinization using TrypLE Express (1X).
(§2) The Benzotriazole compounds were evaluated for antiproliferative effect using the MTT viability assay of various cancer cell lines (MCF-7, HCT-116 and HL-60) and the normal human umbilical vein endothelial cell line (HUVEC) to calculate the relative IC50 values for each compound. Cells were seeded in triplicate in 96-well plates at a density of 10 × 10^3 cells/mL in a total volume of 200 µL per well. 0.1% of DMSO was used as a vehicle control. After this time, they were treated with 2 µL test compound which had been pre-prepared as stock solutions in ethanol to furnish the concentration range of study, 10 nM to 100 µM, and re-incubated for a further 72 h. The culture medium was then removed, and the cells washed with 100 µL phosphate buffered saline (PBS) and 50 µL MTT added, to reach a final concentration of 1 mg/mL MTT added. Cells were incubated for 2 h in darkness at 37 °C. At this point solubilisation was begun through the addition of […] DMSO and the cells maintained at room temperature in darkness for 20 min to ensure thorough colour diffusion before reading the absorbance. Plates were incubated for 72 h at 37 °C + 5% CO2. The MTT (5 mg/mL in PBS) was added and incubated for another 4 h, and the optical density was detected with a microplate reader at 570 nm. Results were expressed as percentage viability relative to vehicle control (100%). Dose response curves were plotted and IC50 values (concentration of drug resulting in 50% reduction in cell survival) were obtained using the commercial software package Prism (GraphPad Software, Inc., La Jolla, CA, USA). All the experiments were repeated in at least three independent experiments.
On the technique in general: Tetrazolium assays rely on reduction of a dye to a coloured formazan, in cell work by metabolically active cells.

Experiment [3] has as its system MCF-7 human breast cancer cell line. Kind of experiment: MTT viability assay, MCF-7. The experiment is classed as cell-based. The following applies: Homo sapiens, MCF7, 72 h, mean ± SD of three independent experiments, read-out: Antiproliferative Activities IC50, MCF-7. Here is the method:
as §1, §2

Experiment [4] relates to HL-60 human leukemia cancer cell line. Description: MTT viability assay, HL-60. The following applies: Homo sapiens, HL-60, 72 h, mean ± SD of three independent experiments, read-out: Antiproliferative Activities IC50, HL-60. The experiment is classed as cell-based. Here is the method: as §1, §2
Experiment [5] has as its system HCT-116 human colon cancer cell line. Description: MTT viability assay, HCT-116. The experiment is classed as cell-based. The following applies: Homo sapiens, HCT-116, 72 h, mean ± SD of three independent experiments, read-out: Antiproliferative Activities IC50, HCT-116. Here is the method: as §1, §2
The test system of experiment [6] is HL-60 cells. Kind of experiment: Cell cycle analysis by PI flow cytometry. The experiment is classed as cell-based, human. The following applies: 50 nM. Here is the method:
HL-60 cells were seeded at a density of 1 × 10^5 cells/well in 6-well plates and treated with CA-4 and compound BI9 (1 µM) for 48 and 72 h. The cells were collected by trypsinization and centrifuged at 800× g for 15 min. Cells were washed twice with ice-cold PBS and fixed in ice-cold 70% ethanol overnight at −20 °C. Fixed cells were centrifuged at 800× g for 15 min and stained with 50 μg/mL of PI, containing 50 μg/mL of DNase-free RNase A, at 37 °C for 30 min. The DNA content of cells (10,000 cells/experimental group) was analysed by flow cytometer at 488 nm using a FACSCalibur flow cytometer (BD Biosciences, San Jose, CA, USA) and all data were recorded and analysed using the CellQuest Software (Becton-Dickinson).
In general terms: A flow cytometer gives signals particle by particle.

For another experiment, the system named is bovine brain tubulin. Description: Tubulin polymerization assay (turbidimetric, kit BK006). The experiment is classed as biochemical. The following applies: read-out: Anti-Tubulin Activity IC50 ± SD (inhibition of tubulin polymerization). Here is the method:
The assembly of purified bovine tubulin was monitored using a kit, BK006, purchased from Cytoskeleton Inc., (Denver, CO, USA). The assay was carried out in accordance with the manufacturer’s instructions using the standard assay conditions. Briefly, purified ([…]) in a buffer consisting of 80 mM PIPES (pH 6.9), 0.5 mM EGTA, 2 mM MgCl2, 1 mM GTP and 10% glycerol was incubated at 37 °C in the presence of either vehicle (2% (v/v) ddH2O), CA-4, benzotriazole compounds. Light was scattered proportionally to the concentration of polymerized microtubules in the assay. Therefore, the tubulin assembly was monitored turbidimetrically at 340 nm in a Spectramax 340 PC spectrophotometer (Molecular Devices, Sunnyvale, CA, USA). The concentration that inhibits tubulin polymerization by 50% (IC50) was determined using area under the curve (AUC). The AUC of the untreated controls were considered as 100% polymerization. The IC50 value for each compound was computed using GraphPad Prism Software.

The test system of experiment [7] is HL-60 cells. Description: Annexin V/PI apoptotic assay by flow cytometry. The experiment is classed as cell-based, human. The following applies: BI9 1 µM, CA-4 concentration not given, control 1.6%. Here is the method:
Apoptotic cell death was detected by flow cytometry using Annexin V and propidium iodide (PI). HL-60 Cells were seeded in 6 well plated at density of 1 × 10^5 cells/mL and treated with vehicle (0.1% (v/v) EtOH), positive control (CA-4) or compound BI9 (1 µM) for 48 and 72 h. Cells were then harvested and prepared for flow cytometric analysis. Cells were washed in 1X binding buffer ([…] binding buffer: 0.1M HEPES, pH 7.4; 1.4 M NaCl; 25 mM CaCl2 diluted in dH2O) and incubated in the dark for 30 min on ice in Annexin V-containing binding buffer [1:100]. Cells were then washed once in binding buffer and then re-suspended in PI-containing binding buffer [1:1000]. Samples were analysed immediately using the BD accuri flow cytometer and prism software for analysis the data. Four populations are produced during the assay Annexin V and PI negative (Q4, healthy cells), Annexin V positive and PI negative (Q3, early apoptosis), Annexin V and PI positive (Q2, late apoptosis) and Annexin V negative and PI positive (Q1, necrosis).

In the case of `COc1ccc(/C=C\c2cc(OC)c(OC)c(OC)c2)cc1O` [CA-4, Combretastatin A-4, reference compound], the “Colchicine Binding % ± SD (inhibition of [3H]colchicine binding), 1 µM Drug” value in experiment [1] (1 µM drug) was 64% and 64.23 ± 0.9%. In experiment [1] (5 µM drug), the “Colchicine Binding % ± SD (inhibition of [3H]colchicine binding), 5 µM Drug” value was 85% and 85.63 ± 2%. For the same molecule, the IC50 in experiment [2] is 13600 ± 650 nM; in experiment [3], […]; in experiment [4] it was 770 ± 50 nM; in experiment [5], 240 ± 20 nM; in the experiment with bovine brain tubulin, […]. Besides, the “Proportion of HL-60 cells in G2/M phase” value in the experiment on HL-60 cells [6] (48 h) was determined as 40.1%; with HL-60 cells [6] (72 h) it was 46.6%. Moreover, in the experiment with HL-60 cells [7] (48 h), the “Total fraction of early and late apoptotic cells (Annexin V positive)” value was 18.7%. The “Average fraction of Annexin V-staining positive cells (total apoptotic cells)” value with HL-60 cells [7] (72 h) was 23.7%.

A word on the IC50: it is the midpoint of a concentration-inhibition curve.

The values are drawn from paper PMC8512560, “Design, Synthesis, and Antipoliferative Activities of Novel Substituted Imidazole-Thione Linked Benzotriazole Derivatives” (Molecules, 2021).
